Experiments:
[1] = system: Rattus norvegicus; details: for NOAEL: inhalation
[2] = system: Anas platyrhynchos; details: short-term; oral; feed; mortality
[3] = system: Colinus virginianus; details: acute, oral, mortality
[4] = system: Macromiidae; details: acute; duration: 72 hours; biomass
[5] = system: Leuciscus idus; details: acute; duration: 96 hours; mortality
[6] = system: Coturnix japonica; details: reproduction developmental
[7] = chronic, duration: 2 years, no effects
[8] = reproduction developmental, mortality
[9] = subchronic, duration: 90 days, no effects

| Compound | LD50 ([1]; acute, oral, mortality) | NOAEL [1, 7] | NOAEL [1, 8] | NOAEL [1, 9] | LOEC ([1]; subchronic, duration: 90 days, oral) | LC50 [2] | LC50 ([3]; diet) | LD50 [3] | NOEC [4] | LC50 [5] | NOEL ([6]; F) | NOEL ([6]; M) |
| --- | --- | --- | --- | --- | --- | --- | --- | --- | --- | --- | --- | --- |
| [PH]=[Zn].[PH]=[Zn].[Zn] [Zinc phosphide (Zn3P2)] | 37 mg/kg-day | 1.1 mg/kg-day | 1.9 mg/kg-day | 1.1 mg/kg-day | 3.5 mg/kg-day | 2880 mg/kg | 468 mg/kg | 12.9 mg/kg-day | 0.00323 mg/L | > 21.7 µg/mL | 0.99 mg/kg-day | 1.2 mg/kg-day |
| P [Phosphine] | – | 1.1 mg/kg-day | 1.9 mg/kg-day | 1.1 mg/kg-day | – | – | – | – | – | – | – | – |
